Key:
[1] = molecular target: T1, Progestin Receptor (Homo sapiens, UniProt P06401); details: cited from earlier work; for Progestin Receptor Binding Affinity: relative binding affinity
T1 sequence (P06401 1-933): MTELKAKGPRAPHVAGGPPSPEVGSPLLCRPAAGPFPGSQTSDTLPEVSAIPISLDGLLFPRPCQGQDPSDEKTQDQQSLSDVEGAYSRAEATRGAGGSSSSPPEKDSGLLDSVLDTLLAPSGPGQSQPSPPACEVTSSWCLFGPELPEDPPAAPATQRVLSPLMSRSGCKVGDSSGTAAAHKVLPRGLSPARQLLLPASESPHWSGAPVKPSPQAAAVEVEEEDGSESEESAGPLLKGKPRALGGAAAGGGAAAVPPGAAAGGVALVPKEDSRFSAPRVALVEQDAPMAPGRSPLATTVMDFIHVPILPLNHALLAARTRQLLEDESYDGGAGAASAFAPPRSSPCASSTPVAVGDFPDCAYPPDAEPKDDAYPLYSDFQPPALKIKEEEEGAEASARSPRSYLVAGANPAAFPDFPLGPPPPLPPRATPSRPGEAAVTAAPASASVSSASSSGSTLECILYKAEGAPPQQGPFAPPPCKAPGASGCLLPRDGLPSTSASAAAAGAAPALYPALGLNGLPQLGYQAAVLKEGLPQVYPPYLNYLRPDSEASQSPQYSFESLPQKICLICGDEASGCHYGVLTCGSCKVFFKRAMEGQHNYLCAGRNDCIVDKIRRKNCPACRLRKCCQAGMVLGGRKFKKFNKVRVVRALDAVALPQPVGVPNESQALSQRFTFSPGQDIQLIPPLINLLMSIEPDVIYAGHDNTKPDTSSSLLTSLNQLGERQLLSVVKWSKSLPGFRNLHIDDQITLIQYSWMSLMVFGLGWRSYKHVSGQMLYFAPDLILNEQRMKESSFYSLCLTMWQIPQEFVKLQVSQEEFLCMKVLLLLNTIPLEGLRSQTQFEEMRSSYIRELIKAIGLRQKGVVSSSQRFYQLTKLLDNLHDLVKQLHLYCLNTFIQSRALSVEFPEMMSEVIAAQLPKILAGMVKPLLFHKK

[2] = molecular target: T2, Androgen Receptor (Homo sapiens, UniProt P10275); details: relative binding affinity; cited from earlier work
T2 sequence (P10275 1-920): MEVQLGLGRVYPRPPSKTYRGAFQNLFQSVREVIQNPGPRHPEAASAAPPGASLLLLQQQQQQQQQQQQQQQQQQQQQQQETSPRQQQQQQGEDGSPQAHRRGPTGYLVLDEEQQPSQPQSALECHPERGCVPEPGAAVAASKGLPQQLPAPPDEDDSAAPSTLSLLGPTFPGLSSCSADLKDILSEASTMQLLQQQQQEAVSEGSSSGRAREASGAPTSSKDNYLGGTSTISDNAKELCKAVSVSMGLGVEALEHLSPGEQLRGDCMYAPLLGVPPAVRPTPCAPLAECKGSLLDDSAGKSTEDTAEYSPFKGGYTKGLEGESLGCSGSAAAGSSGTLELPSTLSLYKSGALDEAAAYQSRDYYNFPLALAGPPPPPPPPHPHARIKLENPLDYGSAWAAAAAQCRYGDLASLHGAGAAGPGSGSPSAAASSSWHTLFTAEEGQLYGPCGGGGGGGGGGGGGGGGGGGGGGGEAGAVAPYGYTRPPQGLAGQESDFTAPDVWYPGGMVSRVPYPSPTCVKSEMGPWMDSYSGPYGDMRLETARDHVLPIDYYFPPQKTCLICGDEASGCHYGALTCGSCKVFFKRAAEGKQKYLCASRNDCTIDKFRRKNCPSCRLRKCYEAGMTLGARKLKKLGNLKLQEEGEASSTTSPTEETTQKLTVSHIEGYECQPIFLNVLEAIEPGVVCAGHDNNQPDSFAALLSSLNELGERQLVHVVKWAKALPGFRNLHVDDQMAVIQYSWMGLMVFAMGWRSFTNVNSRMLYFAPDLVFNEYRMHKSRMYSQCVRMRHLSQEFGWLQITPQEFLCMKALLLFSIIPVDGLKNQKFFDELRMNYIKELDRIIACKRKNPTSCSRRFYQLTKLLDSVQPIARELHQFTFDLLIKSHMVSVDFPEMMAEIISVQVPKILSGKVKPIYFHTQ

[3] = tested on: endometrial proliferation; assay: Clauberg assay, endometrial proliferation on McPhail scale; assay type: in vivo; details: 50 mg/kg
Protocol: The progestational activity was also tested in vivo by Clauberg assay method. The degree of endometrial proliferation was estimated on the McPhail scale where 3′ or 4′ was considered as a full progestational effect.

| Compound | Selectivity Index (A/P ratio) ([1]; androgen vs progestin receptor) | Progestin Receptor Binding Affinity [1] | Androgen Receptor Binding Affinity [2] | progestational activity [3] |
| --- | --- | --- | --- | --- |
| C#C[C@]1(O)C=C[C@H]2[C@@H]3CCC4=CC(=O)CC[C@@H]4[C@H]3CC[C@@]21CC [Gestodene] | 28 | 9.21 | 0.154 |  |
| CC(=O)[C@H]1CC[C@H]2[C@@H]3CCC4=CC(=O)CC[C@]4(C)[C@H]3CC[C@]12C [Progesterone, reference compound] |  |  |  | marked progestational activity |
| C#C[C@]1(O)CC[C@H]2[C@@H]3CCC4=CC(=O)CC[C@@H]4[C@H]3C(=C)C[C@@]21CC [3-Keto-desogestrel] |  | 8.6 |  |  |
